Article PMC3479967 (Evidence-based Complementary and Alternative Medicine : eCAM, 2012)

Columns and labels:
UGT1A4 = target: T1, UGT1A4 (Homo sapiens, UniProt P22310); experiment: Inhibition of recombinant UGT1A4 activity (TFP glucuronidation); type: biochemical; details: recombinant UGT1A4
T1 construct: purchased BD Gentest Corp. (Woburn, MA, USA); host or cells: baculovirus-infected insect cells
T1 sequence (P22310 29-534): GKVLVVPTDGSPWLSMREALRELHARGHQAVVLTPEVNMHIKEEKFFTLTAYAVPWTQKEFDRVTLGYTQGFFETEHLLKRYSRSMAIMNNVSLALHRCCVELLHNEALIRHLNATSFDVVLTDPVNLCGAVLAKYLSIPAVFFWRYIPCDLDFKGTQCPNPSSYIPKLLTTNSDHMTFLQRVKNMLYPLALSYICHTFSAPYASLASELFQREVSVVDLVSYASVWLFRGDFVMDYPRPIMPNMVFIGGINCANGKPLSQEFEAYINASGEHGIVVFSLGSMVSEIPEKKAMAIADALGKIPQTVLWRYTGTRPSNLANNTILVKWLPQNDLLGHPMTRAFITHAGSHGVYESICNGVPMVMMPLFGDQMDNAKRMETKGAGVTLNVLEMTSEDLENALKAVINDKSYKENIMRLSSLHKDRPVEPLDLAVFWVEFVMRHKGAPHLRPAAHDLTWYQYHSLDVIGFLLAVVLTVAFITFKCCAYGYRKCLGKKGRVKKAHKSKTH
Method: TFP was used as the substrate for UGT1A4. Trifluoperazine glucuronide (TFPG) formation was measured using a modification of the method reported. […] Reactions were initiated by the addition of UDPGA and incubations were performed at 37°C in a shaking water bath for 20 min. Incubations were terminated by the addition of 4% acetic acid/96% methanol (0.2 mL) and then centrifuged at 20,500 ×g for 15 min. A 40 μL aliquot of the supernatant fraction was injected into the HPLC column. […] A gradient mobile phase consisting initially of 30 : 70, mobile phase A (acetonitrile) verse mobile phase B (0.5% formic acid/water) was brought to a composition of 90 : 10 in 10 min which was held for 7 min, all at a flow rate of 1 mL/min. Column eluant was monitored by UV absorbance 256 nm. […] The negative controls are the incubation without UDPGA.

UGT2B7 = target: T2, UGT2B7 (Homo sapiens, UniProt P16662); experiment: Inhibition of recombinant UGT2B7 activity (4-MU glucuronidation)
T2 sequence (P16662 24-529): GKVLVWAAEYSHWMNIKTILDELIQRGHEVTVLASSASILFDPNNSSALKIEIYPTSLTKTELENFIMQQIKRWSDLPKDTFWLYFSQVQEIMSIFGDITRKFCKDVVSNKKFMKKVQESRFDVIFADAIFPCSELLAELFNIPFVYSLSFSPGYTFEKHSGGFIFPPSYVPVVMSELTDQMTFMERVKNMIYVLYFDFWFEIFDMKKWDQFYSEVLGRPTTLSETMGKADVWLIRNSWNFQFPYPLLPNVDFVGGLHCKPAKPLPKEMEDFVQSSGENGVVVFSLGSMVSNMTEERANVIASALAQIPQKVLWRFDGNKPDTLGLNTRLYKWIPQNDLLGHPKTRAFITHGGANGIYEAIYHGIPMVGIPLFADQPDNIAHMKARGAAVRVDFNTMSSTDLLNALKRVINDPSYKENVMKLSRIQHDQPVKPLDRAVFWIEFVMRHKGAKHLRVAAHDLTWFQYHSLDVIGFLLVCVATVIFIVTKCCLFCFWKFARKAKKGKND
Method: (§1) A panel of recombinant human UGT supersomes (UGT1A1, UGT1A3, UGT1A4, UGT1A6, UGT1A7, UGT1A8, UGT1A9, UGT1A10, UGT2B4, UGT2B7, UGT2B15, and UGT2B17) expressed in baculovirus-infected insect cells were purchased from BD Gentest Corp. (Woburn, MA, USA).
(§2) 4-MU, a nonselective substrate of UGTs, was used as probe substrate for all UGTs except UGT1A4. Incubations with each individual enzyme were conducted using conditions previously described. There was a 5 min preincubation step at 37°C before the reaction was started by addition of UDPGA. The incubation mixtures were then centrifuged at 20,500 ×g for 15 min to obtain the supernatant. Aliquots (20 μL) were then analyzed by HPLC. The HPLC system (SHIMADZU, Kyoto, Japan) consisted of an SCL-10A system controller, two LC-10AT pumps, a SIL-10A auto injector, and a SPD-10AVP UV detector. Chromatographic separation was achieved using a Kromasil ODS column (4.6 × 150 mm I.D., 5 μm particle size) at a flow rate of 1 mL/min and UV detection at 316 nm. The mobile phase consisted of 10 mM KH2PO4, pH 2.7 (A) and acetonitrile (B). The following gradient was applied at a flow rate of 1 mL/min: 0–4 min 80% A and 20% B, 4.1–8 min 50% A and 50% B, 8.1–12 min, 30% A and 70% B. All experiments were performed in two independent experiments in duplicate.
(§3) A typical incubation mixture contained recombinant human UGTs, 5 mM MgCl2, 5 mM UDPGA, 50 μg/mg protein alamethicin, 50 mM Tris-HCl buffer (pH 7.4), and various probe substrates of UGTs in the absence or presence of different concentrations of inhibitors. […] The final concentration of DMSO in the incubation system was 1% (v/v). […] Known UGT inhibitors were used as positive controls: diclofenac for UGT1A1, UGT1A6, UGT1A7, and UGT1A9; androsterone for UGT1A3, UGT2B7, and UGT2B15, phenylbutazone for UGT1A8 and UGT1A10, and hecogenin for UGT1A4, respectively. There is no positive control reported available for UGT2B4 and UGT2B17. The negative controls are the incubation without UDPGA. […] The final concentration of DMSO in the incubation system was 1% (v/v). […] There was a 5 min preincubation step at 37°C before the reaction was started by the addition of UDPGA. Incubation times were 120 min for UGT1A1, UGT1A10, UGT2B4, UGT2B15, and UGT2B17, 75 min for UGT1A3, and 30 min for UGT1A4, UGT1A6, UGT1A7, UGT1A8, and UGT1A9. The reactions were quenched by adding 100 μL acetonitrile and internal standard. The incubation mixtures were then centrifuged at 20,500 ×g for 15 min to obtain the supernatant. An aliquot of the supernatant was used for HPLC analysis as described above. All experiments were performed in two independent experiments in duplicate.
Inhibition data from experiments were graphically represented by Dixon plots. K i values were calculated by nonlinear regression using the equations for competitive inhibition (1), noncompetitive inhibition (2), or mixed inhibition (3), [22] […] The type of inhibition was determined from the enzyme inhibition models. Goodness of fit to kinetic and inhibition models was assessed from the F statistic, r ^2 values, parameter standard error estimates, and 95% confidence intervals. […]

UGT1A7 = target: T3, UGT1A7 (Homo sapiens, UniProt Q9HAW7); experiment: Inhibition of recombinant UGT1A7 activity (4-MU glucuronidation); details: recombinant UGT1A7
T3 sequence (Q9HAW7 26-530): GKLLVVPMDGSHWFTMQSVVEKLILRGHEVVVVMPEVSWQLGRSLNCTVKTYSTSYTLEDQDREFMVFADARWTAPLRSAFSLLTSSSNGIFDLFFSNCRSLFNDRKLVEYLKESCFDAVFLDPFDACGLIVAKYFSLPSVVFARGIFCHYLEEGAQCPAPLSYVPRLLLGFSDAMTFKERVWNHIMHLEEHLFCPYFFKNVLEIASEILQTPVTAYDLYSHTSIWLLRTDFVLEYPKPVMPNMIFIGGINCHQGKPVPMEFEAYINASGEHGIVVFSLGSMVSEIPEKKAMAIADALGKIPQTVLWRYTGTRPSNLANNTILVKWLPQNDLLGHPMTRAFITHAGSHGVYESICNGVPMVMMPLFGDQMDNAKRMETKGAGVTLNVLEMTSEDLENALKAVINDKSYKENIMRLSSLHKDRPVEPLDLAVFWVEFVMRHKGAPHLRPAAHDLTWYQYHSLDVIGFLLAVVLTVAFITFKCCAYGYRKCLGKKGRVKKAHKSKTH
Method: as §1, §2, §3
Inhibition data from experiments were graphically represented by Dixon plots. K i values were calculated by nonlinear regression using the equations for competitive inhibition (1), noncompetitive inhibition (2), or mixed inhibition (3), [22] (1) v =VmaxS/Km(1+(I/Ki))+S, (2) v =VmaxS/(Km+S)(1+(I/Ki)), (3) v =VmaxS/Km (1+(I/Ki))+S(1+(I/αKi)), where v is the velocity of the reaction; S and I are the substrate and inhibitor concentrations, respectively; K i is the inhibition constant describing the affinity of the inhibitor for the enzyme; K m is the substrate concentration at half of the maximum velocity (V max) of the reaction; α reflects the effect of inhibitor on the affinity of the enzyme for its substrate. The type of inhibition was determined from the enzyme inhibition models. Goodness of fit to kinetic and inhibition models was assessed from the F statistic, r ^2 values, parameter standard error estimates, and 95% confidence intervals. Kinetic constants are reported as the mean value ± standard error of the parameter estimate.

Icariside II was tested, and the “Inhibition type against UGT1A4” value (UGT1A4) was “competitive”, the “Inhibition type against UGT2B7” value (UGT2B7; recombinant UGT2B7) was “mixed” and the “α of mixed inhibition against UGT2B7” value (UGT2B7; recombinant UGT2B7, mixed inhibition model) was 3.3. For the same substance, the “Inhibition type against UGT1A7” value (UGT1A7) was “noncompetitive”.
